Columns and labels:
Segments of neo-artery = test: Pharmacologic reactivity of vessel segments in myographs; format: cell-based; conditions: for constriction response of vessel segment: prostaglandin F2α 10^−5 to 10^−4 M, serotonin 10^−6 to 10^−5 M, endothelin-1 10^−7, resting tension four grams
Description: Segments of neo-artery three mm in length were assessed for reactivity to pharmacologic agents using techniques previously reported. Briefly, segments were placed in physiological saline bubbled with 95% O2 and 5% CO2, and mounted on tungsten wires in conventional myographs connected to a pen recorder. Freshly excised segments of rabbit abdominal aorta were used as controls. Vessels were maintained at a resting tension of four grams for 30 minutes prior to testing. Vessels were exposed to indomethacin 10^−5 M, LNNA 10^−4 M, norepinephrine 10^−6 M, prostaglandin F2α10^−5 to 10^−4 M, papavarine 10^−6 to 10^−5 M, serotonin 10^−6 to 10^−5 M, endothelin-1 10^−7 and potassium 30-60 mM. […] In some experiments, the magnitude of the constriction response was augmented by prior exposure to indomethacin.

smooth muscle cell = conditions: cited from earlier work
smooth muscle cells = test: Growth of smooth muscle cells under externally applied physical forces; format: cell-based; conditions: response to externally applied physical forces such as pulsatile force
Description: For use in the methods of the present invention, several variations on standard cell growth media have been developed. […] In addition, for growing any cells which normally produce a substantial collagenous extracellular matrix, an “enhanced cell growth medium” has been developed which comprises standard cell growth medium, as described above, supplemented with 1-10 mM, preferably 5 mM, HEPES buffer; 0.01-0.1 g/L, preferably 0.02-0.06 g/L, Vitamin C; 0.01-0.1 g/L, preferably 0.02-0.06 g/L, proline; 0.01-0.1 g/L, preferably 0.02-0.06 g/L, glycine; 0.01-0.1 g/L, preferably 0.02-0.06 g/L, alanine; and 0.5-5.0 μg/L, preferably 1.0-3.0 μg/L, of a copper salt (e.g., CuSO4). Because Vitamin C has a half-life of only 6-8 hours at 37° C. in culture medium, Vitamin C is preferably replenished daily to enhance collagen synthesis by the cells. In addition, proline, glycine, and alanine are provided in excess to provide adequate amounts of these amino acids for the synthesis of collagen and other extracellular matrix proteins such as elastin. Copper ions are a necessary co-factor for elastin synthesis and, therefore, a source of copper ions (e.g., CuSO4) is preferably included in media used to grow elastin-rich tissues. For the growth of endothelial cells, it is preferred that CS be used rather than FBS. […]

aortic endothelial cell = conditions: cited from earlier work

| Compound | effect on smooth muscle cell proliferation (smooth muscle cell) | constriction response of vessel segment (Segments of neo-artery) | also measured |
| --- | --- | --- | --- |
| COc1ccc(Cc2nccc3cc(OC)c(OC)cc23)cc1OC [papavarine] |  |  | relaxation response of vessel segment (Segments of neo-artery; papavarine 10^−6 to 10^−5 M): relaxation |
| aFGF: acidic fibroblast growth factor | stimulate smooth muscle cell proliferation |  |  |
| prostaglandin F2α |  | reproducible constriction |  |
| NCCc1c[nH]c2ccc(O)cc12 [serotonin] |  | reproducible constriction |  |
| [H]/N=C(/N)N[C@H]1[C@H](O)[C@@H](O)[C@H](O[C@@H]2O[C@@H](C)[C@](O)(C=O)[C@H]2O[C@@H]2O[C@@H](CO)[C@H](O)[C@@H](O)[C@@H]2NC)[C@@H](N/C(N)=N\[H])[C@@H]1O [streptomycin] |  |  | effect on development of the desired smooth muscle phenotype (smooth muscle cells): tends to inhibit the development of the desired phenotype |
| COc1ccc2c(c1)c(CC(=O)O)c(C)n2C(=O)c1ccc(Cl)cc1 [indomethacin] |  |  | effect of prior exposure on magnitude of the constriction response (Segments of neo-artery; indomethacin 10^−5 M, in some experiments): augmented |
| bFGF: basic fibroblast growth factor | stimulate smooth muscle cell proliferation |  | effect on aortic endothelial cell growth (aortic endothelial cell): stimulate aortic endothelial cell growth |
| endothelin-1 (CSCSSLMDKECVYFCHLDIIW; Endothelin-1; UniProt P05305 53-73, looked up) |  | reproducible constriction |  |
| VEGF |  |  | effect on aortic endothelial cell growth (aortic endothelial cell): stimulate aortic endothelial cell growth |
| PDGF | stimulate smooth muscle cell proliferation |  |  |

From patent publication US6537567B1, “Tissue-engineered tubular construct having circumferentially oriented smooth muscle cells” (Massachusetts Institute of Technology, priority 1997, dated 2003)
